Positions of bridges follow the written chain, without caps; N, C: chain ends. Non-standard residues stand in square brackets, D forms with d. Residues, ends and D or L forms follow the SMILES beside them. *: point of attachment. X12 = O=C(O)CCCCCCCCCCCCCCCCCCC(=O)N[C@@H](CCC(=O)NCCCOCCOCCOCCCN*)C(=O)O; X6 = O=C(O)CCCCCCCCCCCCCCCCC(=O)N[C@@H](CCC(=O)NCCCOCCOCCOCCCN*)C(=O)O; Trp(1-CH2COOH) = N[C@@H](Cc1cn(CC(=O)O)c2ccccc12)C(=O)O; X8 = O=C(O)CCCCCCCCCCCCNC(=O)CCC(=O)NCCCOCCOCCOCCCN*; NH(CH2)12COOH = O=C(O)CCCCCCCCCCCCN*; Hyp = O=C(O)[C@@H]1C[C@@H](O)CN1; NMeNle = CCCC[C@H](NC)C(=O)O; NMeA = CN[C@@H](C)C(=O)O; Dab = NCC[C@H](N)C(=O)O; Dap = NC[C@H](N)C(=O)O

In the test the target is T1, PD-L1 (Homo sapiens, UniProt Q9NZQ7).
T1 construct: hPDL1(19-239)-TVMV-His; made in house; host or cells: HEK293T
T1 sequence (Q9NZQ7 with tags, fused parts or gaps): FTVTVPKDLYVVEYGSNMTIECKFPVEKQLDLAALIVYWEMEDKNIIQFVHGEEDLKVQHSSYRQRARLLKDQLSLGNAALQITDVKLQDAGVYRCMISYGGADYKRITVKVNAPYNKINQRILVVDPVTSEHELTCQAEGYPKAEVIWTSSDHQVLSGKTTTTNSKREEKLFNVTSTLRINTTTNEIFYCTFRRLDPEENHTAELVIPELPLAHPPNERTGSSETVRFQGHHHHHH
The test can be described thus: PD-1/PD-L1 Homogenous Time-Resolved Fluorescence (HTRF) binding assay (PD-1-Ig/PD-L1-His). To be noted: inhibition of PD-1-Ig binding to PD-L1-TVMV-His; value given as range class; read-out: HTRF IC50. Summed up:
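Inhibitors pre-incubated 15 min with PD-L1-His (10 nM final), then PD-1-Ig (20 nM final) added for 15 min in dPBS/0.1% BSA/0.05% Tween-20. Eu-cryptate anti-Ig (1 nM) and APC anti-His (20 nM) added, 30 min equilibration, 665/620 nm HTRF ratio read.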
(TR-FRET usually uses a lanthanide donor and a delayed reading to cut background.)
The term IC50 denotes the concentration needed to halve the response being measured. As for `CCCC[C@H]1C(=O)N(C)[C@@H](CCCC)C(=O)N[C@@H](CC(C)C)C(=O)N[C@H](C(=O)NCC(=O)NCC(=O)NCC(=O)NCCCCCCCCCCCCC(=O)O)CSCC(=O)N[C@@H](Cc2ccc(O)cc2)C(=O)N(C)[C@@H](C)C(=O)N[C@@H](CC(N)=O)C(=O)N2CCC[C@H]2C(=O)N[C@@H](CN)C(=O)N[C@@H](CC(C)C)C(=O)N2C[C@H](O)C[C@H]2C(=O)N[C@@H](Cc2c[nH]c3ccccc23)C(=O)N[C@@H](CCN)C(=O)N[C@@H](Cc2cn(CC(=O)O)c3ccccc23)C(=O)N1C` [Example 11215] ({CH2CO}-Y[NMeA]NP[Dap]L[Hyp]W[Dab][Trp(1-CH2COOH)][NMeNle][NMeNle]LCGGG-{NH(CH2)12COOH}; thioether N-14), the IC50 fell in the range of 10 to 99 nM.
As to `CCCC[C@H]1C(=O)N(C)[C@@H](CCCC)C(=O)N[C@@H](CC(C)C)C(=O)N[C@H](C(=O)NCC(=O)NCC(=O)NCC(=O)NCCCCCCCCCCCCC(=O)O)CSCC(=O)N[C@@H](Cc2ccc(O)cc2)C(=O)N(C)[C@@H](C)C(=O)N[C@@H](CC(=O)O)C(=O)N2CCC[C@H]2C(=O)N[C@@H](Cc2cnc[nH]2)C(=O)N[C@@H](CCCCN)C(=O)N2C[C@H](O)C[C@H]2C(=O)N[C@@H](Cc2c[nH]c3ccccc23)C(=O)N[C@@H](CCCCN)C(=O)N[C@@H](Cc2cn(CC(=O)O)c3ccccc23)C(=O)N1C` [Example 11216] ({CH2CO}-Y[NMeA]DPHK[Hyp]WK[Trp(1-CH2COOH)][NMeNle][NMeNle]LCGGG-{NH(CH2)12COOH}; thioether N-14), the IC50 lay within 10 to 99 nM.
As for `CCCC[C@H]1C(=O)N(C)[C@@H](CCCC)C(=O)N[C@@H](CC(C)C)C(=O)N[C@H](C(=O)NCC(=O)N[C@@H](CC(=O)O)C(=O)N[C@@H](CC(=O)O)C(=O)NCCCCCCCCCCCCC(=O)O)CSCC(=O)N[C@@H](Cc2ccc(O)cc2)C(=O)N(C)[C@@H](C)C(=O)N[C@@H](CC(N)=O)C(=O)N2CCC[C@H]2C(=O)N[C@@H](CN)C(=O)N[C@@H](CC(C)C)C(=O)N2C[C@H](O)C[C@H]2C(=O)N[C@@H](Cc2c[nH]c3ccccc23)C(=O)N[C@@H](CCN)C(=O)N[C@@H](Cc2cn(CC(=O)O)c3ccccc23)C(=O)N1C` [Example 11217] ({CH2CO}-Y[NMeA]NP[Dap]L[Hyp]W[Dab][Trp(1-CH2COOH)][NMeNle][NMeNle]LCGDD-{NH(CH2)12COOH}; thioether N-14), the IC50 fell in the range of 10 to 99 nM.
On to `CCCC[C@H]1C(=O)N(C)[C@@H](CCCC)C(=O)N[C@@H](CC(C)C)C(=O)N[C@H](C(=O)NCC(=O)N[C@@H](CC(=O)O)C(=O)N[C@@H](CC(=O)O)C(=O)NCCCCCCCCCCCCC(=O)O)CSCC(=O)N[C@@H](Cc2ccc(O)cc2)C(=O)N(C)[C@@H](C)C(=O)N[C@@H](CC(=O)O)C(=O)N2CCC[C@H]2C(=O)N[C@@H](Cc2cnc[nH]2)C(=O)N[C@@H](CCCCN)C(=O)N2C[C@H](O)C[C@H]2C(=O)N[C@@H](Cc2c[nH]c3ccccc23)C(=O)N[C@@H](CCCCN)C(=O)N[C@@H](Cc2cn(CC(=O)O)c3ccccc23)C(=O)N1C` [Example 11218] ({CH2CO}-Y[NMeA]DPHK[Hyp]WK[Trp(1-CH2COOH)][NMeNle][NMeNle]LCGDD-{NH(CH2)12COOH}; thioether N-14), for which the IC50 lay in the range of 10 to 99 nM.
In the case of `CCCC[C@H]1C(=O)N(C)[C@@H](CCCC)C(=O)N[C@@H](CC(C)C)C(=O)N[C@H](C(=O)NCCCOCCOCCOCCCNC(=O)CCC(=O)NCCCCCCCCCCCCC(=O)O)CSCC(=O)N[C@@H](Cc2ccc(O)cc2)C(=O)N(C)[C@@H](C)C(=O)N[C@@H](CC(=O)O)C(=O)N2CCC[C@H]2C(=O)N[C@@H](Cc2cnc[nH]2)C(=O)N[C@@H](CCCCN)C(=O)N2C[C@H](O)C[C@H]2C(=O)N[C@@H](Cc2c[nH]c3ccccc23)C(=O)N[C@@H](CCCCN)C(=O)N[C@@H](Cc2cn(CC(=O)O)c3ccccc23)C(=O)N1C` [Example 11219] ({CH2CO}-Y[NMeA]DPHK[Hyp]WK[Trp(1-CH2COOH)][NMeNle][NMeNle]LC-X8; thioether N-14), the IC50 lay in the range of 10 to 99 nM.
For the compound `CCCC[C@H]1C(=O)N(C)[C@@H](CCCC)C(=O)N[C@@H](CC(C)C)C(=O)N[C@H](C(=O)NCC(=O)NCC(=O)N[C@@H](CC(=O)O)C(=O)NCCCCCCCCCCCCC(=O)O)CSCC(=O)N[C@@H](Cc2ccc(O)cc2)C(=O)N(C)[C@@H](C)C(=O)N[C@@H](CC(=O)O)C(=O)N2CCC[C@H]2C(=O)N[C@@H](Cc2cnc[nH]2)C(=O)N[C@@H](CCCCN)C(=O)N2C[C@H](O)C[C@H]2C(=O)N[C@@H](Cc2c[nH]c3ccccc23)C(=O)N[C@@H](CCCCN)C(=O)N[C@@H](Cc2cn(CC(=O)O)c3ccccc23)C(=O)N1C` [Example 11220] ({CH2CO}-Y[NMeA]DPHK[Hyp]WK[Trp(1-CH2COOH)][NMeNle][NMeNle]LCGGD-{NH(CH2)12COOH}; thioether N-14), the IC50 fell in the range of 10 to 99 nM.
Regarding `CCCC[C@H]1C(=O)N(C)[C@@H](CCCC)C(=O)N[C@@H](CC(C)C)C(=O)N[C@H](C(=O)NCC(=O)NCC(=O)N[C@@H](CC(=O)O)C(=O)NCCCCCCCCCCCCC(=O)O)CSCC(=O)N[C@@H](Cc2ccc(O)cc2)C(=O)N(C)[C@@H](C)C(=O)N[C@@H](CC(N)=O)C(=O)N2CCC[C@H]2C(=O)N[C@@H](CN)C(=O)N[C@@H](CC(C)C)C(=O)N2C[C@H](O)C[C@H]2C(=O)N[C@@H](Cc2c[nH]c3ccccc23)C(=O)N[C@@H](CCN)C(=O)N[C@@H](Cc2cn(CC(=O)O)c3ccccc23)C(=O)N1C` [Example 11221] ({CH2CO}-Y[NMeA]NP[Dap]L[Hyp]W[Dab][Trp(1-CH2COOH)][NMeNle][NMeNle]LCGGD-{NH(CH2)12COOH}; thioether N-14), the IC50 is 10 to 99 nM.
For `CCCC[C@H]1C(=O)N(C)[C@@H](CCCC)C(=O)N[C@@H](CC(C)C)C(=O)N[C@H](C(=O)NCC(=O)N[C@@H](CC(=O)O)C(=O)NCC(=O)NCCCCCCCCCCCCC(=O)O)CSCC(=O)N[C@@H](Cc2ccc(O)cc2)C(=O)N(C)[C@@H](C)C(=O)N[C@@H](CC(N)=O)C(=O)N2CCC[C@H]2C(=O)N[C@@H](CN)C(=O)N[C@@H](CC(C)C)C(=O)N2C[C@H](O)C[C@H]2C(=O)N[C@@H](Cc2c[nH]c3ccccc23)C(=O)N[C@@H](CCN)C(=O)N[C@@H](Cc2cn(CC(=O)O)c3ccccc23)C(=O)N1C` [Example 11223] ({CH2CO}-Y[NMeA]NP[Dap]L[Hyp]W[Dab][Trp(1-CH2COOH)][NMeNle][NMeNle]LCGDG-{NH(CH2)12COOH}; thioether N-14) the value was 10 to 99 nM; for `CCCC[C@H]1C(=O)N(C)[C@@H](CCCC)C(=O)N[C@@H](CC(C)C)C(=O)N[C@H](C(=O)NCC(=O)N[C@@H](CC(=O)O)C(=O)NCCCOCCOCCOCCCNC(=O)CC[C@H](NC(=O)CCCCCCCCCCCCCCCCC(=O)O)C(=O)O)CSCC(=O)N[C@@H](Cc2ccc(O)cc2)C(=O)N(C)[C@@H](C)C(=O)N[C@@H](CC(N)=O)C(=O)N2CCC[C@H]2C(=O)N[C@@H](CN)C(=O)N[C@@H](CC(C)C)C(=O)N2C[C@H](O)C[C@H]2C(=O)N[C@@H](Cc2c[nH]c3ccccc23)C(=O)N[C@@H](CCN)C(=O)N[C@@H](Cc2cn(CC(=O)O)c3ccccc23)C(=O)N1C` [Example 11224] ({CH2CO}-Y[NMeA]NP[Dap]L[Hyp]W[Dab][Trp(1-CH2COOH)][NMeNle][NMeNle]LCGD-X6; thioether N-14), 0.3 to 9.9 nM.
As to `CCCC[C@H]1C(=O)N(C)[C@@H](CCCC)C(=O)N[C@@H](CC(C)C)C(=O)N[C@H](C(=O)NCC(=O)N[C@@H](CC(=O)O)C(=O)N[C@@H](CC(=O)NCCCOCCOCCOCCCNC(=O)CC[C@H](NC(=O)CCCCCCCCCCCCCCCCC(=O)O)C(=O)O)C(=O)O)CSCC(=O)N[C@@H](Cc2ccc(O)cc2)C(=O)N(C)[C@@H](C)C(=O)N[C@@H](CC(N)=O)C(=O)N2CCC[C@H]2C(=O)N[C@@H](CN)C(=O)N[C@@H](CC(C)C)C(=O)N2C[C@H](O)C[C@H]2C(=O)N[C@@H](Cc2c[nH]c3ccccc23)C(=O)N[C@@H](CCN)C(=O)N[C@@H](Cc2cn(CC(=O)O)c3ccccc23)C(=O)N1C` [Example 11225] ({CH2CO}-Y[NMeA]NP[Dap]L[Hyp]W[Dab][Trp(1-CH2COOH)][NMeNle][NMeNle]LCGDD(X6)-OH; thioether N-14), the IC50 lay in the range of 0.3 to 9.9 nM.
Regarding `CCCC[C@H]1C(=O)N(C)[C@@H](CCCC)C(=O)N[C@@H](CC(C)C)C(=O)N[C@H](C(=O)NCC(=O)N[C@@H](CCC(=O)O)C(=O)NCCCOCCOCCOCCCNC(=O)CC[C@H](NC(=O)CCCCCCCCCCCCCCCCCCC(=O)O)C(=O)O)CSCC(=O)N[C@@H](Cc2ccc(O)cc2)C(=O)N(C)[C@@H](C)C(=O)N[C@@H](CC(N)=O)C(=O)N2CCC[C@H]2C(=O)N[C@@H](CN)C(=O)N[C@@H](CC(C)C)C(=O)N2C[C@H](O)C[C@H]2C(=O)N[C@@H](Cc2c[nH]c3ccccc23)C(=O)N[C@@H](CCN)C(=O)N[C@@H](Cc2cn(CC(=O)O)c3ccccc23)C(=O)N1C` [Example 11226] ({CH2CO}-Y[NMeA]NP[Dap]L[Hyp]W[Dab][Trp(1-CH2COOH)][NMeNle][NMeNle]LCGE-X12; thioether N-14), the IC50 was in the range of 0.3 to 9.9 nM.
For `CCCC[C@H]1C(=O)N(C)[C@@H](CCCC)C(=O)N[C@@H](CC(C)C)C(=O)N[C@H](C(=O)N[C@@H](CC(=O)O)C(=O)N[C@@H](CC(=O)NCCCOCCOCCOCCCNC(=O)CC[C@H](NC(=O)CCCCCCCCCCCCCCCCC(=O)O)C(=O)O)C(=O)O)CSCC(=O)N[C@@H](Cc2ccc(O)cc2)C(=O)N(C)[C@@H](C)C(=O)N[C@@H](CC(N)=O)C(=O)N2CCC[C@H]2C(=O)N[C@@H](CN)C(=O)N[C@@H](CC(C)C)C(=O)N2C[C@H](O)C[C@H]2C(=O)N[C@@H](Cc2c[nH]c3ccccc23)C(=O)N[C@@H](CCN)C(=O)N[C@@H](Cc2cn(CC(=O)O)c3ccccc23)C(=O)N1C` [Example 11227] ({CH2CO}-Y[NMeA]NP[Dap]L[Hyp]W[Dab][Trp(1-CH2COOH)][NMeNle][NMeNle]LCDD(X6)-OH; thioether N-14) the value was 0.3 to 9.9 nM.

Values taken from US10633419B2, “Immunomodulators” (BRISTOL-MYERS SQUIBB COMPANY, priority 2014, dated 2020).
